From patent US20260364047A1, “METHODS OF SWITCHING NEUROPSYCHIATRIC MEDICATIONS USING ULOTARONT” (Sumitomo Pharma America, Inc., priority 2022, published 2026)
“Also recorded” adds a separate entry of the source.

Tests used:
[1] = Changes in body weights of rats previously treated with olanzapine
[2] = Liver triglycerides of rats previously treated with olanzapine; conditions: 3 mg/kg po; prior olanzapine 3 mg/kg po
[3] = Daily food intake of rats previously treated with olanzapine; conditions: 3 mg/kg/day po
[4] = Week 1 (Day 1-8), 3 mg/kg po, high-fat diet
[5] = Week 2 (Day 8-14), 3 mg/kg po, prior olanzapine 3 mg/kg po

With `Cc1cc2c(s1)Nc1ccccc1N=C2N1CCN(C)CC1` [Olanzapine, olanzapine] the “Increase in body weight, previously shown in-house” value ([1]; 3 mg/kg po, this model, earlier in-house experiments) was 4-6%, the “Body weight compared to vehicle treated rats (in words)” value ([1]; 3 mg/kg/day po) was “An increase in body weight; also recorded: significantly increased body weight” and the “Time to initial effects on body weight and food intake” value ([1]; 3 mg/kg/day po, as early as, following dosing) was 2 to 3 days. For the same compound, the “Changes in body weights, Difference vs Vehicle (A)” value [1, 4] was 13.07 g, the “Changes in body weights, Mean” value [1, 4] was 25.48 g and the “Changes in body weights, Difference vs Vehicle (A)” value [1, 5] was 7.55 g. The “Changes in body weights, Mean” value [1, 5] was 16.70 g, the “Liver triglycerides (μmol total), % vs Vehicle (A)” value [2] was 100.4% and the “Liver triglycerides (μmol/g), % vs Vehicle (A)” value [2] was 100.0%. The “Liver triglycerides total, Mean” value [2] was 348 μmol total, the “Liver triglycerides, Mean” value [2] was 37.1 µmol/g and the “Food intake compared to vehicle treated rats (in words)” value [3] was “significantly increased”.
